Measured values: patent publication US20150148256A1, “BIOLUMINESCENCE IMAGING-BASED SCREENING ASSAY AND INHIBITORS OF ABCG2” (THE JOHNS HOPKINS UNIVERSITY, priority 2008, published 2015)
Structures can show the parent of a compound that is named as a salt. Where two headings read alike, the source gives them in different places.

What was measured:
[1] = molecular target: T1, ABCG2 (Homo sapiens, UniProt Q9UNQ0); experiment: Bioluminescence imaging (BLI) assay in HEK293/ABCG2/fLuc cells
T1 sequence (Q9UNQ0 1-655): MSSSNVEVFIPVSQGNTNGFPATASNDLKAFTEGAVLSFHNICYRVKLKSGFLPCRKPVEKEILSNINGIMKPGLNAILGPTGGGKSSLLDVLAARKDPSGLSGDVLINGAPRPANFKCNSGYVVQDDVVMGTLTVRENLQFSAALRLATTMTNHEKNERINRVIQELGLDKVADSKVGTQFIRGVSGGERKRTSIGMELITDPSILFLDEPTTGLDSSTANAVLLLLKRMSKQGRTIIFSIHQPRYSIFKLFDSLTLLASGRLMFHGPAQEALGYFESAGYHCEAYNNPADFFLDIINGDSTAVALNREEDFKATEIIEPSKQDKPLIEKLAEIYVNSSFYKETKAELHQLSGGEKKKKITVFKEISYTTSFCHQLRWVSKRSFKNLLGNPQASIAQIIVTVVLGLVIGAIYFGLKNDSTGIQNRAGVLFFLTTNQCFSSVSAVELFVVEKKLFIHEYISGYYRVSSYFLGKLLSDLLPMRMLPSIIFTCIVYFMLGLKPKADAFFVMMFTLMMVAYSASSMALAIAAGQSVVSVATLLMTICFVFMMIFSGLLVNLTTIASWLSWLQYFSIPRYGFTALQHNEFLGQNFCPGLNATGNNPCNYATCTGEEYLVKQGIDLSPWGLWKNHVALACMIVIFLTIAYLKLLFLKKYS
Summary of the method: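 Light output from HEK293/ABCG2/fLuc cells plated at 4×10^4 per well, treated with compounds, imaged every 5 min for ~1 h. Values are signal-to-background ratios versus solvent control at 40 min, indicating ABCG2 inhibition. Dose range 0.001 μM-100 μM with 50 μg/mL D-luciferin for selected compounds.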

[2] = molecular target: T2, MRP1 (Multiple Drug Resistance Protein 1) (Homo sapiens, UniProt P33527); experiment: Colchicine resensitization assay in MDCKII cells overexpressing MRP1; assay type: cell-based; settings: 0.3 μM Col, two days
T2 construct: expressed in transfected cells; host or cells: MDCKII
Description: The ABC transporter-inhibiting ability of the potential inhibitors identified were further tested by evaluating their ability to resensitize ABCG2-overexpressing NCI-H460/MX20 cells to MTX, or MDCKII cells overexpressing Pgp or MRP1, to Col. Cells were plated in 96-well plates at 1×10^4 per well and allowed to attach. […] Colchicine was added at 1 μM for MDCKII/Pgp cells and 0.3 μM for MDCKII/MRP1 cells. […] In brief, 1 mg/ml XTT (Polysciences, Warrington, Pa.) was mixed with 0.025 mM PMS (Sigma), and 50 μl of the mixture was added to each well and incubated for 4 hours at 37° C. After the plates were mixed on a plate shaker, absorbance at 450 nm was measured. All results were normalized to a percentage of absorbance obtained in controls.
MDCKII cells overexpressing Pgp or MRP1 were incubated for two days in medium containing 1 μM (for Pgp) or 0.3 μM (for MRP1) Col and increasing concentrations of each ABCG2 inhibitor.

[3] = tested on: ABCG2-overexpressing NCI-H460/MX20 cells; settings: for resensitization of H460/MX20 cells to MTX: compound 1 μM with 15 μM MTX, two days
[4] = molecular target: T1, ABCG2; settings: 1 h, 20 μM
[5] = molecular target: T1, ABCG2; experiment: BODIPY-prazosin uptake assay (flow cytometry) in HEK293/ABCG2 cells; settings: compound 20 μM; for BP (BODIPY-prazosin dye uptake assay): 1 h; for BODIPY-prazosin assay result: flow cytometry
[6] = Table 2, HEK293/ABCG2/fLuc cells, compound approximately 17 μM, ~50 μg/mL D-luciferin, 40 min time point
[7] = Table 4, approximately 17 μM, 40 min time point
[8] = compound 20 μM, H460/MX20 cells

T2 sequence (P33527 whole entry): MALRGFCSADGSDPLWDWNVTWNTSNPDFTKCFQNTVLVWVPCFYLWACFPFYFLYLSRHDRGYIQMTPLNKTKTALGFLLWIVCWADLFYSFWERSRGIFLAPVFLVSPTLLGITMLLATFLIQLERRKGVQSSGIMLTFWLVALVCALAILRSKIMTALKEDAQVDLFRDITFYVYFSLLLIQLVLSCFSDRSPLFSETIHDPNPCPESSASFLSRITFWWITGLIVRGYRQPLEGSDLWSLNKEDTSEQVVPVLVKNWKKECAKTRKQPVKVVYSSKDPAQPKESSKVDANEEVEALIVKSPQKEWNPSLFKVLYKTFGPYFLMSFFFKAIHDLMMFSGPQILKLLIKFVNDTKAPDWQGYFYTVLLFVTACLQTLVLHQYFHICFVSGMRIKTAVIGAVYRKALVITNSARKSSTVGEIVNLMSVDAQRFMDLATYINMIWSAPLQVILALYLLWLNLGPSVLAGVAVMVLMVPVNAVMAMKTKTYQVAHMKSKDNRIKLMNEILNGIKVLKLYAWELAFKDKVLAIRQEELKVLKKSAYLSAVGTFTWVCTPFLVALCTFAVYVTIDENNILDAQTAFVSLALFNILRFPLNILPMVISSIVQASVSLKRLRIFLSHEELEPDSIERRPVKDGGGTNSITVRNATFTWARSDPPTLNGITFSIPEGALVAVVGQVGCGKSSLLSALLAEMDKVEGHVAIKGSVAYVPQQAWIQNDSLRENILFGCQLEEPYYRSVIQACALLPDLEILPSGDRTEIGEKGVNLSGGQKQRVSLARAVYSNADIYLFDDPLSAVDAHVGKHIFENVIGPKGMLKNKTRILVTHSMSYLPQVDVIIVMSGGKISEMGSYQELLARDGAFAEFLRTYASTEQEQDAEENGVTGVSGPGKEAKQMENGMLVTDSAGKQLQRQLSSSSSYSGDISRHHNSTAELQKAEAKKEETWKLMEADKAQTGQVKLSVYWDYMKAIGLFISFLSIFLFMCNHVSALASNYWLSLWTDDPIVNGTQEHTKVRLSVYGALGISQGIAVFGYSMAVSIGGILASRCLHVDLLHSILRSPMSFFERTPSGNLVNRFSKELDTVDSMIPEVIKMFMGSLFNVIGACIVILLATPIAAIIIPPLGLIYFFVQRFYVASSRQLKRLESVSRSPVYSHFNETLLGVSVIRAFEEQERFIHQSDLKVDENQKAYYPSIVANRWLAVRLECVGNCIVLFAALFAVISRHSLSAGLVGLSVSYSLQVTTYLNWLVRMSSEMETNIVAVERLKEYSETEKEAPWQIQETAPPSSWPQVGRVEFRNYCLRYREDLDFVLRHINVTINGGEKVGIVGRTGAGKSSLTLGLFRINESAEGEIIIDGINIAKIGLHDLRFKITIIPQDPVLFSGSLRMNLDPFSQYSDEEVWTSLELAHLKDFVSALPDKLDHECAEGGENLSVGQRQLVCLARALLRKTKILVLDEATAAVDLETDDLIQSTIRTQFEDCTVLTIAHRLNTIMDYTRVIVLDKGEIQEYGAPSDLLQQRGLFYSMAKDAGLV

## O=C(OCC(O)CO)c1ccccc1Nc1ccnc2cc(Cl)ccc12 (stereo not shown) [glafenine]
[1]
  IC50: 3.2 µM
[1]; human, 40 min, 17 μM
  BLI signal enhancement: ~20 fold
  Fold (BLI enhancement), previously unknown compounds: 20.6 fold
  Fold (BLI enhancement, S/B ratio over control): 20.6 fold
[2]
  concentration from which MDCKII/MRP1 cells are resensitized to Col: 10 µM
[3]
  MTX (mitoxantrone resensitization assay): Y
  concentration that effectively resensitizes H460/MX20 cells to MTX: ≤ 0.001 µM
  relative potency in dose-dependent MTX resensitization: more potent ABCG2 inhibitor than FTC, doxazosin mesylate, clebopride maleate, and flavoxate hydrochloride
  survival of H460/MX20 cells: 13%

## CC(C)(C(=O)c1cccnc1)c1cccnc1 [metyrapone, 2-methyl-1,2-dipyridin-3-yl-propan-1-one]
[1]; human, 40 min, 17 μM
  Fold (BLI enhancement), previously unknown compounds: 6.3 fold
  Fold (BLI enhancement, S/B ratio over control): 6.3 fold
[3]; H460/MX20 cells with MTX
  MTX (mitoxantrone resensitization assay): Y

## CCN(CC)CCCC(C)Nc1c2ccc(Cl)cc2nc2ccc(OC)cc12 (stereo not shown) [quinacrine]
[1]; human, 40 min, 17 μM
  Fold (BLI enhancement), previously unknown compounds: 10.6 fold
  Fold (BLI enhancement, S/B ratio over control): 10.6 fold
[3]
  cytotoxicity in the MTX resensitization assay: too cytotoxic to be tested
[4]
  BODIPY-prazosin assay result: confirmed as an ABCG2 inhibitor

## O=C(c1ccc(OCCN2CCCCC2)cc1)c1c(-c2ccc(O)cc2)sc2cc(O)ccc12 [raloxifene hydrochloride]
[1]; human, 40 min, 17 μM
  Fold (BLI enhancement), previously unknown compounds: 5.4 fold
  Fold (BLI enhancement, S/B ratio over control): 5.4 fold
[3]; H460/MX20 cells with MTX
  MTX (mitoxantrone resensitization assay): Y

## Cc1cc2nc3c(=O)[nH]c(=O)nc-3n(C[C@H](O)[C@H](O)[C@H](O)CO)c2cc1C [riboflavin]
[1]; human, 40 min, 17 μM
  Fold (BLI enhancement), known compounds: 5.4 fold
  Fold (BLI enhancement, S/B ratio over control): 5.4 fold
[3]; H460/MX20 cells with MTX
  MTX (mitoxantrone resensitization assay): Y

## C=C(C)[C@H]1Cc2c(ccc3c2O[C@@H]2COc4cc(OC)c(OC)cc4[C@@H]2C3=O)O1 [rotenone]
[1]; human
  Fold (BLI enhancement), previously unknown compounds: 6.7 fold
  Fold (BLI enhancement, S/B ratio over control): 6.7 fold
[3]
  MTX (mitoxantrone resensitization assay): Y
[5]
  BP (BODIPY-prazosin dye uptake assay): Y
  BODIPY-prazosin assay result: positive

## CCCCNc1c(C(=O)OCC)c(C)nc2c1cnn2CC [tracazolate]
[1]; human, 40 min, 17 μM
  Fold (BLI enhancement), previously unknown compounds: 20 fold
  Fold (BLI enhancement, S/B ratio over control): 20.0 fold
[3]; H460/MX20 cells with MTX
  MTX (mitoxantrone resensitization assay): Y

## acetophenazine maleate
[3]; H460/MX20 cells with MTX
  MTX (mitoxantrone resensitization assay): Y

## gramicidin
[1]; [6]
  Fold (BLI enhancement, S/B ratio over control): 6.9 fold
[1]; [7]
  Fold (BLI enhancement), previously unknown compounds: 6.9 fold
[3]
  resensitization of H460/MX20 cells to MTX: showed resensitization of H460/MX20 cells to MTX
[3]; [8]
  cytotoxicity in the MTX resensitization assay: too cytotoxic to be tested

## verteporfin
[1]; [6]
  Fold (BLI enhancement, S/B ratio over control): 11.3 fold
[1]; [7]
  Fold (BLI enhancement), previously unknown compounds: 11.3 fold
[3]; H460/MX20 cells with MTX
  MTX (mitoxantrone resensitization assay): Y
[3]
  resensitization of H460/MX20 cells to MTX: showed resensitization of H460/MX20 cells to MTX
[3]; [8]
  cytotoxicity in the MTX resensitization assay: too cytotoxic to be tested
[3]; compound 20 μM, H460/MX20 cells, listed as Verteporfin
  cytotoxicity in the MTX resensitization assay: too cytotoxic to validate by MTX assay
[5]
  BP (BODIPY-prazosin dye uptake assay): N
  BODIPY-prazosin assay result: negative
